This is an account of results in US8129371B2, “Thienopyrimidine and pyrazolopyrimidine compounds and their use as mTOR kinase and PI3 kinase inhibitors” (Wyeth LLC, priority 2007, dated 2012).

Broadly, the IC50 is the concentration at which inhibition is half-maximal.

Experiment [1] concerns the target T1, PI3K (Homo sapiens, UniProt P42336).
T1 construct: PI3 Kinase α IC50; other: PI3 Kinase α; other: PI3 Kinase α isoform, fluorescence polarization
Put plainly: Fluorescence polarization assay for PI3K. The class given is biochemical. Particulars: read-out: PI3 Kinase α IC50. The method, boiled down:
(§1)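 Fluorescence-polarization competition readout: after 30–60 min of PIP2/ATP turnover in 1% DMSO, a stop mix with GST-GRP (70 nM) and red probe (10 nM) was added.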
On the technique in general: Fluorescence polarisation rises when a labelled molecule tumbles more slowly, as on binding a larger partner.

The target in experiment [2] is T2, PI3K (Homo sapiens, UniProt P48736).
T2 construct: PI3 Kinase γ IC50; other: PI3 Kinase γ; other: PI3 Kinase γ isoform, fluorescence polarization
Put plainly: Fluorescence polarization assay for PI3K. It counts as biochemical. The conditions noted are these: read-out: PI3 Kinase γ IC50. The method, boiled down: as §1

Experiment [3] concerns the target T3, Human mTOR (FLAG-TOR) (Homo sapiens, UniProt P42345).
T3 construct: FLAG
Put plainly: Human mTOR kinase assay with purified enzyme, DELFIA format. The class given is biochemical. The method, boiled down: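 DELFIA readout: Eu-anti-P(T389)-S6K antibody (40 ng/mL, 1 h) on captured His6-S6K from the stopped reaction. Kinase step used purified FLAG-tagged human mTOR with test compound in HEPES (pH 7.4)/MnCl2/DTT buffer, 2 h at room temperature (linear 1–6 h), terminated by EDTA/EGTA.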

The test system of experiment [4] is prostate line LNCap. Put plainly: In vitro cell culture growth assay (MTS), LNCap. The class given is cell-based. The conditions noted are these: Homo sapiens, LNCaP, 72 h, LNCap cells, three days after drug treatment. Here is the method:
Human tumor cell lines used include prostate lines LNCap and PC3MM2, breast lines MDA468, MCF7, renal line HTB44 (A498), colon line HCT116, and ovarian line OVCAR3. Cells were plated in 96-well culture plates. One day following plating, the inhibitors were added to cells. Three days after drug treatment, viable cell densities were determined by metabolic conversion (by viable cells) of the dye MTS, a well-established cell proliferation assay. The assays were performed using an assay kit purchased from Promega Corp. (Madison, Wis.) following the protocol supplied with the kit. The MTS assay results were read in a 96-well plate reader by measuring absorbance at 490 nm. The effect of each treatment was calculated as percent of control growth relative to the vehicle-treated cells grown in the same culture plate.

The test system of experiment [5] is breast line MDA468. Put plainly: In vitro cell culture growth assay (MTS), MDA468. The class given is cell-based. Particulars: Homo sapiens, 72 h, MDA468 cells, three days after drug treatment. The method, boiled down: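 Growth is reported as percent of vehicle-treated control grown in the same plate, with viability determined by metabolic conversion of MTS dye and absorbance read at 490 nm. Compounds were applied one day after plating and left for three days.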

Like-named read-outs stand apart in the source and are kept apart here.

T1 sequence (P42336 whole entry, canonical isoform): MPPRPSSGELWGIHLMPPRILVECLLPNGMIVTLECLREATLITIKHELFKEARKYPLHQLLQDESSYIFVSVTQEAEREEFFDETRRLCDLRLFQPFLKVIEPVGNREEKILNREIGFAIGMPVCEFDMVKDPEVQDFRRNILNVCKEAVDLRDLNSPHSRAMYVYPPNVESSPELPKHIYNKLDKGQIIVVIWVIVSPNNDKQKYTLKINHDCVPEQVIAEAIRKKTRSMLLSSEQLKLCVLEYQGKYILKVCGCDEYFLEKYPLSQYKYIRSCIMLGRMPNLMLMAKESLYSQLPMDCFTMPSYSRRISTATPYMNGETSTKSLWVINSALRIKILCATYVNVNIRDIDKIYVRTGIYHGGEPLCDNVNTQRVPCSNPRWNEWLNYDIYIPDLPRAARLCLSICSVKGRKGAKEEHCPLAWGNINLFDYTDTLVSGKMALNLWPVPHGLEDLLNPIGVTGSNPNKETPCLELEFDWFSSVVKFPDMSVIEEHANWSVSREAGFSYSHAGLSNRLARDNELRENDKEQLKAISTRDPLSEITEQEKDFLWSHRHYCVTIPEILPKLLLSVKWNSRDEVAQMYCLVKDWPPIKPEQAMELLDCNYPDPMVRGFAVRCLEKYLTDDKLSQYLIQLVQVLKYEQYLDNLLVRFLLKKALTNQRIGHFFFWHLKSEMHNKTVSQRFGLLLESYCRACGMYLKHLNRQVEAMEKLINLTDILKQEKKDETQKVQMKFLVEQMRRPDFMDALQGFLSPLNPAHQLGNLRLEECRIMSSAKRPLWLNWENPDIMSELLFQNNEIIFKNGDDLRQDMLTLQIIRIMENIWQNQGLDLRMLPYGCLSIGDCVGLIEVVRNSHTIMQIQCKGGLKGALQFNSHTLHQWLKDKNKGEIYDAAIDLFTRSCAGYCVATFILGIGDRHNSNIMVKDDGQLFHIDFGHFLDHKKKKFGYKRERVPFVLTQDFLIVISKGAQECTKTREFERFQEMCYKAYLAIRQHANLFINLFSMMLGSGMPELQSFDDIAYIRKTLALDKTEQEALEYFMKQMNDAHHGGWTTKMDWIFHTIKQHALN
T2 sequence (P48736 whole entry, canonical isoform): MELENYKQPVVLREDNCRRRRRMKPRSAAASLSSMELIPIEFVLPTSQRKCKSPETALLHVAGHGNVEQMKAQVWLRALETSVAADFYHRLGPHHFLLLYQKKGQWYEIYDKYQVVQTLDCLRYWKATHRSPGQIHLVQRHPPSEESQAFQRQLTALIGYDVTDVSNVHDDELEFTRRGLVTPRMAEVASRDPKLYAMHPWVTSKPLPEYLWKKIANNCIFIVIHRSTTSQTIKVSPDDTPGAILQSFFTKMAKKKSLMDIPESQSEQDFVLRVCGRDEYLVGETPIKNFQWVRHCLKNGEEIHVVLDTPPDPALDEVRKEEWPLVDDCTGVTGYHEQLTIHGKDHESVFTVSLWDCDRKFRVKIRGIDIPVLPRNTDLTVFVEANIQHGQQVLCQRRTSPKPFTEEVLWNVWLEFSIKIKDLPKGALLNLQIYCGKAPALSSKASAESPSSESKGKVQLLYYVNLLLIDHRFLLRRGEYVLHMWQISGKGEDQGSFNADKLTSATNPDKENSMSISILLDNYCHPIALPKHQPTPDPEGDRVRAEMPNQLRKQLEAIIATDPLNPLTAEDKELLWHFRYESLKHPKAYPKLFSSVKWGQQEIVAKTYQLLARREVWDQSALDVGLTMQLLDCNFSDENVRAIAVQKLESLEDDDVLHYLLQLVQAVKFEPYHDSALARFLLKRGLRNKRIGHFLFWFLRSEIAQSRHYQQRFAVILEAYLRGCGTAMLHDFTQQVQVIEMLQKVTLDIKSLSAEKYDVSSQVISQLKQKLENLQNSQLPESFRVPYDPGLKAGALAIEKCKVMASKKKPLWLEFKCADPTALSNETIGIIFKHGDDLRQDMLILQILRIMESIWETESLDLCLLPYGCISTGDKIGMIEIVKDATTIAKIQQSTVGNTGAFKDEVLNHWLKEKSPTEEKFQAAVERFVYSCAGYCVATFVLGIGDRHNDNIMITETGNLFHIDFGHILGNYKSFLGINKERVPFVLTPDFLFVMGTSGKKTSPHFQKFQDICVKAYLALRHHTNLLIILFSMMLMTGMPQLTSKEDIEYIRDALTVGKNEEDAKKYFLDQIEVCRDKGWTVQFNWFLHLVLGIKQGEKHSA

`CNC(=O)Nc1ccc(-c2nc(N3CC4CCC(C3)O4)c3cnn(C4CCC5(CCCO5)CC4)c3n2)cc1` (single isomer, unassigned) [Example 389, 1-methyl-3-(4-{4-(8-oxa-3-azabicyclo[3.2.1]oct-3-yl)-1-[(5r,8r)-1-oxaspiro[4.5]dec-8-yl]-1H-pyrazolo[3,4-d]pyrimidin-6-yl}phenyl)urea]: the IC50 is 909 nM in experiment [1] (PI3 Kinase α isoform, fluorescence polarization); over 10000 nM in experiment [2] (PI3 Kinase γ isoform, fluorescence polarization); 0.285 nM in experiment [3] (purified human mTOR enzyme, DELFIA format); 2 nM in experiment [4]; 17 nM in experiment [5].
For the molecule `CNC(=O)Nc1ccc(-c2nc(N3CC4CCC(C3)O4)c3cnn(CC(F)(F)F)c3n2)cc1` [Example 1, 1-methyl-3-{4-[4-(8-oxa-3-azabicyclo[3.2.1]oct-3-yl)-1-(2,2,2-trifluoroethyl)-1H-pyrazolo[3,4-d]pyrimidin-6-yl]phenyl}urea], the IC50 in experiment [1] (PI3 Kinase α) was 1620 nM; in experiment [2] (PI3 Kinase γ) it was over 10000 nM; in experiment [3] it was 0.63 nM; in experiment [4], 38 nM; in experiment [5], 46 nM.
Consider `COC(=O)Nc1ccc(-c2nc(N3CC4CCC(C3)O4)c3cnn(CC(F)(F)F)c3n2)cc1` [Example 2, methyl {4-[4-(8-oxa-3-azabicyclo[3.2.1]oct-3-yl)-1-(2,2,2-trifluoroethyl)-1H-pyrazolo[3,4-d]pyrimidin-6-yl]phenyl}carbamate], for which the IC50 in experiment [1] (PI3 Kinase α) is over 10000 nM; in experiment [2] (PI3 Kinase γ), over 10000 nM; in experiment [3] it was 8 nM; in experiment [4], 650 nM; in experiment [5], 680 nM.
On to `CCNC(=O)Nc1ccc(-c2nc(N3CC4CCC(C3)O4)c3cnn(CC(F)(F)F)c3n2)cc1` [Example 3, 1-ethyl-3-{4-[4-(8-oxa-3-azabicyclo[3.2.1]oct-3-yl)-1-(2,2,2-trifluoroethyl)-1H-pyrazolo[3,4-d]pyrimidin-6-yl]phenyl}urea], for which the IC50 is 3750 nM in experiment [1] (PI3 Kinase α); over 10000 nM in experiment [2] (PI3 Kinase γ); 0.38 nM in experiment [3]; under 27 nM in experiment [4]; under 27 nM in experiment [5].
`O=C(Nc1ccc(-c2nc(N3CC4CCC(C3)O4)c3cnn(CC(F)(F)F)c3n2)cc1)Nc1cccnc1` [Example 4, 1-{4-[4-(8-oxa-3-azabicyclo[3.2.1]oct-3-yl)-1-(2,2,2-trifluoroethyl)-1H-pyrazolo[3,4-d]pyrimidin-6-yl]phenyl}-3-pyridin-3-ylurea]: the IC50 in experiment [1] (PI3 Kinase α) was 345 nM; in experiment [2] (PI3 Kinase γ), 2140 nM; in experiment [3], 0.18 nM; in experiment [4] it was under 27 nM; in experiment [5] it was under 27 nM.
Regarding `O=C(NCCF)Nc1ccc(-c2nc(N3CC4CCC(C3)O4)c3cnn(CC(F)(F)F)c3n2)cc1` [Example 6, 1-(2-fluoroethyl)-3-{4-[4-(8-oxa-3-azabicyclo[3.2.1]oct-3-yl)-1-(2,2,2-trifluoroethyl)-1H-pyrazolo[3,4-d]pyrimidin-6-yl]phenyl}urea], the IC50 in experiment [1] (PI3 Kinase α) was 2750 nM; in experiment [2] (PI3 Kinase γ) it was 6570 nM; in experiment [3] it was 0.22 nM; in experiment [4], under 27 nM; in experiment [5], under 27 nM.
Consider `CNC(=O)Nc1ccc(-c2nc(N3CC4CCC(C3)O4)c3cnn(C4CCN(C(=O)OC)CC4)c3n2)cc1` [Example 7, methyl 4-[6-{4-[(methylcarbamoyl)amino]phenyl}-4-(8-oxa-3-azabicyclo[3.2.1]oct-3-yl)-1H-pyrazolo[3,4-d]pyrimidin-1-yl]piperidine-1-carboxylate], for which the IC50 was 1800 nM in experiment [1] (PI3 Kinase α); over 10000 nM in experiment [2] (PI3 Kinase γ); 0.21 nM in experiment [3]; 26 nM in experiment [4]; 80 nM in experiment [5].
In the case of `CNC(=O)Nc1ccc(-c2nc(N3CC4CCC(C3)O4)c3cnn(C4CCN(C(=O)OC(C)(C)C)CC4)c3n2)cc1` [Example 8, tert-butyl 4-[6-{4-[(methylcarbamoyl)amino]phenyl}-4-(8-oxa-3-azabicyclo[3.2.1]oct-3-yl)-1H-pyrazolo[3,4-d]pyrimidin-1-yl]piperidine-1-carboxylate], the IC50 in experiment [1] (PI3 Kinase α) is 1480 nM; in experiment [2] (PI3 Kinase γ) it was over 10000 nM; in experiment [3], 0.28 nM; in experiment [4], under 27 nM; in experiment [5], 180 nM.
As for `CCNC(=O)Nc1ccc(-c2nc(N3CC4CCC(C3)O4)c3cnn(C4CCN(C(=O)OC)CC4)c3n2)cc1` [Example 9, methyl 4-[6-{4-[(ethylcarbamoyl)amino]phenyl}-4-(8-oxa-3-azabicyclo[3.2.1]oct-3-yl)-1H-pyrazolo[3,4-d]pyrimidin-1-yl]piperidine-1-carboxylate], the IC50 was 5330 nM in experiment [1] (PI3 Kinase α); over 10000 nM in experiment [2] (PI3 Kinase γ); 0.22 nM in experiment [3]; 9 nM in experiment [4]; 180 nM in experiment [5].
As for `COC(=O)N1CCC(n2ncc3c(N4CC5CCC(C4)O5)nc(-c4ccc(NC(=O)NCCF)cc4)nc32)CC1` [Example 10, methyl 4-[6-(4-{[(2-fluoroethyl)carbamoyl]amino}phenyl)-4-(8-oxa-3-azabicyclo[3.2.1]oct-3-yl)-1H-pyrazolo[3,4-d]pyrimidin-1-yl]piperidine-1-carboxylate], the IC50 in experiment [1] (PI3 Kinase α) was found to be 4930 nM; in experiment [2] (PI3 Kinase γ) it was 6590 nM; in experiment [3] it was 0.34 nM; in experiment [4], 12 nM; in experiment [5], 220 nM.
`COC(=O)N1CCC(n2ncc3c(N4CC5CCC(C4)O5)nc(-c4ccc(NC(=O)Nc5ccccc5)cc4)nc32)CC1` [Example 11, methyl 4-[4-(8-oxa-3-azabicyclo[3.2.1]oct-3-yl)-6-{4-[(phenylcarbamoyl)amino]phenyl}-1H-pyrazolo[3,4-d]pyrimidin-1-yl]piperidine-1-carboxylate]: the IC50 in experiment [1] (PI3 Kinase α) is 272 nM; in experiment [2] (PI3 Kinase γ) it was 6820 nM; in experiment [3], 0.37 nM; in experiment [4], 10 nM; in experiment [5] it was 120 nM.
For `COC(=O)N1CCC(n2ncc3c(N4CC5CCC(C4)O5)nc(-c4ccc(NC(=O)Nc5cccnc5)cc4)nc32)CC1` [Example 13, methyl 4-[4-(8-oxa-3-azabicyclo[3.2.1]oct-3-yl)-6-{4-[(pyridin-3-ylcarbamoyl)amino]phenyl}-1H-pyrazolo[3,4-d]pyrimidin-1-yl]piperidine-1-carboxylate] the same measures were 613 nM, 6840 nM, 0.1 nM, 15 nM and 75 nM.
In the case of `COC(=O)N1CCC(n2ncc3c(N4CC5CCC(C4)O5)nc(-c4ccc(NC(=O)Nc5ccncc5)cc4)nc32)CC1` [Example 14, methyl 4-[4-(8-oxa-3-azabicyclo[3.2.1]oct-3-yl)-6-{4-[(pyridin-4-ylcarbamoyl)amino]phenyl}-1H-pyrazolo[3,4-d]pyrimidin-1-yl]piperidine-1-carboxylate], the IC50 in experiment [1] (PI3 Kinase α) is 487 nM; in experiment [2] (PI3 Kinase γ), 2050 nM; in experiment [3], 0.16 nM; in experiment [4] it was 0.9 nM; in experiment [5], 19 nM.
Take `CCNC(=O)Nc1ccc(-c2nc(N3CC4CCC(C3)O4)c3cnn(C4CCN(Cc5cccnc5)CC4)c3n2)cc1` [Example 15, 1-ethyl-3-(4-{4-(8-oxa-3-azabicyclo[3.2.1]oct-3-yl)-1-[1-(pyridin-3-ylmethyl)piperidin-4-yl]-1H-pyrazolo[3,4-d]pyrimidin-6-yl}phenyl)urea]: the IC50 in experiment [1] (PI3 Kinase α) was 2280 nM; in experiment [2] (PI3 Kinase γ), over 10000 nM; in experiment [3] it was 0.31 nM; in experiment [4], 4 nM; in experiment [5] it was 85 nM.
`O=C(NCCF)Nc1ccc(-c2nc(N3CC4CCC(C3)O4)c3cnn(C4CCN(Cc5cccnc5)CC4)c3n2)cc1` [Example 16, 1-(2-fluoroethyl)-3-(4-{4-(8-oxa-3-azabicyclo[3.2.1]oct-3-yl)-1-[1-(pyridin-3-ylmethyl)piperidin-4-yl]-1H-pyrazolo[3,4-d]pyrimidin-6-yl}phenyl)urea]: the IC50 in experiment [1] (PI3 Kinase α) was 2630 nM; in experiment [2] (PI3 Kinase γ), over 10000 nM; in experiment [3] it was 0.5 nM; in experiment [4], 6 nM; in experiment [5], 80 nM.
On the same counts, the results for `O=C(Nc1ccccc1)Nc1ccc(-c2nc(N3CC4CCC(C3)O4)c3cnn(C4CCN(Cc5cccnc5)CC4)c3n2)cc1` [Example 17, 1-(4-{4-(8-oxa-3-azabicyclo[3.2.1]oct-3-yl)-1-[1-(pyridin-3-ylmethyl)piperidin-4-yl]-1H-pyrazolo[3,4-d]pyrimidin-6-yl}phenyl)-3-phenylurea] are 222 nM, 1860 nM, 0.61 nM, 0.8 nM and 10 nM.
